# Test system: 463943-066-T-J2-PDC tumor spheroids with HUVEC/MSC, viability
# Experiment: Anticancer human tumor 463943-066-T-J2-PDC patient-derived colon adenocarcinoma cell line growth inhibition [TAK]
# Conditions: for IC50: curve of first compound; for viability, T/C: stronger effect = lower value
# In short: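 Drug combinations, each paired with TAK-243 or ipatasertib, were tested on multi-cell spheroids of 60% malignant cells, 25% HUVEC and 15% hMSC. Top concentrations were at or near the clinical Cmax (10 microM if undetermined), decreasing by half-log; viability is given as % test/control.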
# [1] = second compound 0.3 µM, first compound 0.0316 µM
# [2] = second compound 0.3 µM, first compound 0.1 µM
# [3] = second compound 0.3 µM, first compound 0.316 µM
# [4] = second compound 0.3 µM, first compound 1 µM
# [5] = second compound 0.3 µM, first compound 3.16 µM
# [6] = second compound 0.3 µM, first compound 10 µM
# [7] = second compound 0.949 µM, first compound 0.0316 µM
# [8] = second compound 0.949 µM, first compound 0.1 µM
# [9] = second compound 0.949 µM, first compound 0.316 µM
# [10] = second compound 0.949 µM, first compound 1 µM
# [11] = second compound 0.949 µM, first compound 3.16 µM
# [12] = second compound 0.949 µM, first compound 10 µM
# [13] = second compound 3 µM, first compound 0.0316 µM
# [14] = second compound 3 µM, first compound 0.1 µM
# [15] = second compound 3 µM, first compound 0.316 µM
# [16] = second compound 3 µM, first compound 1 µM
# [17] = second compound 3 µM, first compound 3.16 µM
# [18] = second compound 3 µM, first compound 10 µM
# [19] = second compound 9.49 µM, first compound 0.0316 µM
# [20] = second compound 9.49 µM, first compound 0.1 µM
# [21] = second compound 9.49 µM, first compound 0.316 µM
# [22] = second compound 9.49 µM, first compound 1 µM
# [23] = second compound 9.49 µM, first compound 3.16 µM
# [24] = second compound 9.49 µM, first compound 10 µM
# [25] = second compound 30 µM, first compound 0.0316 µM
# [26] = second compound 30 µM, first compound 0.1 µM
# [27] = second compound 30 µM, first compound 0.316 µM
# [28] = second compound 30 µM, first compound 1 µM
# [29] = second compound 30 µM, first compound 3.16 µM
# [30] = second compound 30 µM, first compound 10 µM
# 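Note: spheroids exposed to drugs for seven days.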
# 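Throughout, for viability, T/C: 100% = DMSO vehicle control wells.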
smiles,measurement,setting,value
CC(C)(C)c1nc(-c2cccc(NS(=O)(=O)c3c(F)cccc3F)c2F)c(-c2ccnc(N)n2)s1 + CC(C)NCC(C(=O)N1CCN(c2ncnc3c2C(C)CC3O)CC1)c1ccc(Cl)cc1,IC50,second compound 0.3 µM,> 10 µM
same,IC50,second compound 0.949 µM,> 10 µM
same,IC50,second compound 3 µM,> 10 µM
same,IC50,second compound 9.49 µM,> 10 µM
same,IC50,second compound 30 µM,> 10 µM
same,"viability, T/C",[1],110%
same,"viability, T/C",[2],111%
same,"viability, T/C",[3],107%
same,"viability, T/C",[4],112%
same,"viability, T/C",[5],100%
same,"viability, T/C",[6],92.5%
same,"viability, T/C",[7],115%
same,"viability, T/C",[8],111%
same,"viability, T/C",[9],105%
same,"viability, T/C",[10],111%
same,"viability, T/C",[11],103%
same,"viability, T/C",[12],88.3%
same,"viability, T/C",[13],99%
same,"viability, T/C",[14],109%
same,"viability, T/C",[15],92.2%
same,"viability, T/C",[16],102%
same,"viability, T/C",[17],110%
same,"viability, T/C",[18],101%
same,"viability, T/C",[19],100%
same,"viability, T/C",[20],111%
same,"viability, T/C",[21],99.2%
same,"viability, T/C",[22],109%
same,"viability, T/C",[23],107%
same,"viability, T/C",[24],104%
same,"viability, T/C",[25],91%
same,"viability, T/C",[26],98.6%
same,"viability, T/C",[27],100%
same,"viability, T/C",[28],97.2%
same,"viability, T/C",[29],104%
same,"viability, T/C",[30],91.1%
CC(C)n1nc(-c2ccc3oc(N)nc3c2)c2c(N)ncnc21 + CC(C)NCC(C(=O)N1CCN(c2ncnc3c2C(C)CC3O)CC1)c1ccc(Cl)cc1,IC50,second compound 0.3 µM,> 0.1 µM
same,IC50,second compound 0.949 µM,> 0.1 µM
same,IC50,second compound 3 µM,> 0.1 µM
same,IC50,second compound 9.49 µM,> 0.1 µM
same,IC50,second compound 30 µM,> 0.1 µM
same,"viability, T/C","second compound 0.3 µM, first compound 0.000316 µM",112%
same,"viability, T/C","second compound 0.3 µM, first compound 0.001 µM",102%
same,"viability, T/C","second compound 0.3 µM, first compound 0.00316 µM",105%
same,"viability, T/C","second compound 0.3 µM, first compound 0.01 µM",95.2%
same,"viability, T/C",[1],79.6%
same,"viability, T/C",[2],74.1%
same,"viability, T/C","second compound 0.949 µM, first compound 0.000316 µM",100%
same,"viability, T/C","second compound 0.949 µM, first compound 0.001 µM",97.2%
same,"viability, T/C","second compound 0.949 µM, first compound 0.00316 µM",81.8%
same,"viability, T/C","second compound 0.949 µM, first compound 0.01 µM",78.6%
same,"viability, T/C",[7],82.7%
same,"viability, T/C",[8],78.5%
same,"viability, T/C","second compound 3 µM, first compound 0.000316 µM",95.2%
same,"viability, T/C","second compound 3 µM, first compound 0.001 µM",106%
same,"viability, T/C","second compound 3 µM, first compound 0.00316 µM",93.4%
same,"viability, T/C","second compound 3 µM, first compound 0.01 µM",89.8%
same,"viability, T/C",[13],85.3%
same,"viability, T/C",[14],78.2%
same,"viability, T/C","second compound 9.49 µM, first compound 0.000316 µM",103%
same,"viability, T/C","second compound 9.49 µM, first compound 0.001 µM",91.6%
same,"viability, T/C","second compound 9.49 µM, first compound 0.00316 µM",91.4%
same,"viability, T/C","second compound 9.49 µM, first compound 0.01 µM",88.3%
same,"viability, T/C",[19],82.6%
same,"viability, T/C",[20],74.1%
same,"viability, T/C","second compound 30 µM, first compound 0.000316 µM",86.1%
same,"viability, T/C","second compound 30 µM, first compound 0.001 µM",106%
same,"viability, T/C","second compound 30 µM, first compound 0.00316 µM",83.2%
same,"viability, T/C","second compound 30 µM, first compound 0.01 µM",89%
same,"viability, T/C",[25],82%
same,"viability, T/C",[26],74.6%
CCCS(=O)(=O)Nc1ccc(F)c(C(=O)c2c[nH]c3ncc(-c4ccc(Cl)cc4)cc23)c1F + CC(C)NCC(C(=O)N1CCN(c2ncnc3c2C(C)CC3O)CC1)c1ccc(Cl)cc1,IC50,second compound 0.3 µM,> 100 µM
same,IC50,second compound 0.949 µM,> 100 µM
same,IC50,second compound 3 µM,> 100 µM
same,IC50,second compound 9.49 µM,> 100 µM
same,IC50,second compound 30 µM,> 100 µM
same,"viability, T/C",[3],105%
same,"viability, T/C",[4],102%
same,"viability, T/C",[5],104%
same,"viability, T/C",[6],99.7%
same,"viability, T/C","second compound 0.3 µM, first compound 31.6 µM",125%
same,"viability, T/C","second compound 0.3 µM, first compound 100 µM",105%
same,"viability, T/C",[9],108%
same,"viability, T/C",[10],104%
same,"viability, T/C",[11],103%
same,"viability, T/C",[12],106%
same,"viability, T/C","second compound 0.949 µM, first compound 31.6 µM",64.2%
same,"viability, T/C","second compound 0.949 µM, first compound 100 µM",110%
same,"viability, T/C",[15],103%
same,"viability, T/C",[16],109%
same,"viability, T/C",[17],92.7%
same,"viability, T/C",[18],92%
same,"viability, T/C","second compound 3 µM, first compound 31.6 µM",88.4%
same,"viability, T/C","second compound 3 µM, first compound 100 µM",104%
same,"viability, T/C",[21],102%
same,"viability, T/C",[22],109%
same,"viability, T/C",[23],98.2%
same,"viability, T/C",[24],89.6%
same,"viability, T/C","second compound 9.49 µM, first compound 31.6 µM",68.6%
same,"viability, T/C","second compound 9.49 µM, first compound 100 µM",109%
same,"viability, T/C",[27],87.5%
same,"viability, T/C",[28],94.7%
same,"viability, T/C",[29],91.9%
same,"viability, T/C",[30],88.9%
same,"viability, T/C","second compound 30 µM, first compound 31.6 µM",25.6%
same,"viability, T/C","second compound 30 µM, first compound 100 µM",95.8%
Cc1nc(NC(=O)N2CCCC2C(N)=O)sc1-c1ccnc(C(C)(C)C(F)(F)F)c1 (stereo not given) + CC(C)NCC(C(=O)N1CCN(c2ncnc3c2C(C)CC3O)CC1)c1ccc(Cl)cc1,IC50,second compound 0.3 µM,> 10 µM
same,IC50,second compound 0.949 µM,> 10 µM
same,IC50,second compound 3 µM,> 10 µM
same,IC50,second compound 9.49 µM,> 10 µM
same,IC50,second compound 30 µM,> 10 µM
same,"viability, T/C",[1],106%
same,"viability, T/C",[2],99.8%
same,"viability, T/C",[3],105%
same,"viability, T/C",[4],87.8%
same,"viability, T/C",[5],81%
same,"viability, T/C",[6],79.3%
same,"viability, T/C",[7],104%
same,"viability, T/C",[8],89.9%
same,"viability, T/C",[9],91.8%
same,"viability, T/C",[10],89.2%
same,"viability, T/C",[11],78.4%
same,"viability, T/C",[12],78.1%
same,"viability, T/C",[13],98%
same,"viability, T/C",[14],100%
same,"viability, T/C",[15],88.4%
same,"viability, T/C",[16],88.8%
same,"viability, T/C",[17],81.1%
same,"viability, T/C",[18],75%
same,"viability, T/C",[19],89.6%
same,"viability, T/C",[20],95.3%
same,"viability, T/C",[21],90.7%
same,"viability, T/C",[22],86.9%
same,"viability, T/C",[23],79.5%
same,"viability, T/C",[24],80.7%
same,"viability, T/C",[25],92.7%
same,"viability, T/C",[26],94.4%
same,"viability, T/C",[27],88.2%
same,"viability, T/C",[28],92.8%
same,"viability, T/C",[29],90.5%
same,"viability, T/C",[30],76.6%

# Source: PubChem BioAssay AID2060361 (Molecular Pharmacology Branch, DTP, NCI, 2025)
